These results are taken from patent US20260191802A1, “DRUG TO TREAT STIMULANT ADDICTION” (SINGLE DOSE THERAPEUTICS, INC., priority 2023, published 2026).

A short description of data set [1]: Aqueous equilibrium solubility, slurry in water, HPLC of supernatant. The data set is classed as physicochemical. The conditions noted are these: 24 hours of equilibration at room temperature.
Data set [2] is described as follows: Onset of therapeutic effect after oral administration. The data set is classed as in vivo. The note with it: orally administered. From the text:
The objective of the present disclosure is to improve the standard of care in treating mental disorders, such as StUD, by facilitating extinction learning through the administration of a therapeutically effective amount of bromantane or an analogue thereof. While bromantane or an analogue of bromantane can be administered uncompounded, administering a pharmaceutical preparation that ensures consistent absorption and fosters patient adherence to the treatment regimen is advantageous. For example, the onset of therapeutic effect for orally administered crystalline bromantane free base is slow (2-3 hours) due to solubility-limited absorption and high first-pass extraction. Preparations that improve bromantane's solubility or bioavailability to produce a faster onset of therapeutic effect are advantageous for addressing acute incentive salience expeditiously in the treatment of StUD, thereby increasing the likelihood of patient adherence to the treatment regimen and reducing the likelihood of relapse. Accordingly, the present disclosure also provides novel, advantageous pharmaceutical preparations of bromantane and their methods of use.

Data set [3] is described as follows: Dynamic Vapor Sorption (DVS) isothermal water sorption and desorption. The data set is classed as physicochemical. The conditions noted are these: 25° C. and 80% RH. On the procedure: The solubility advantage imparted by a specific salt form of bromantane compared to the free base form cannot be predicted with certainty because the interactions of the counterion with the therapeutic agent and dissolution medium are unique and complex. Empirical testing is necessary. Dynamic Vapor Sorption (DVS) testing was performed to compare the isothermal water sorption and desorption behaviors of bromantane free base Form I [FIG. 22] with that of bromantane hydrochloride Form I [FIG. 23].

The test system of data set [4] is participants who had self-reported drug dependencies to a drug of concern. Briefly: Exploratory study of bromantane intervention in participants with self-reported drug dependencies. The data set is classed as in vivo, human. The protocol: To investigate the utility of bromantane as a single-agent pharmacological intervention to interrupt stimulant dependence, an exploratory study was conducted with participants who had self-reported drug dependencies to a drug of concern. The intervention consisted of Test Article (bromantane) administered at a dose of 50 mg qd po for 7 days, starting on the first day of Week 1 of the study. Results from the exploratory study are summarized in [FIG. 2]. The number of days the drug of concern was used by the participant during each 1-week period during the 4-week study is shown in the Drug Dependency column.
In addition to being an effective single-agent pharmacological intervention to interrupt stimulant dependence, it was discovered that bromantane has utility as a treatment for certain comorbidities that are specifically underpinned by maladaptive learning, such as occupational burnout exacerbated by conditioned fear responses and attention-deficit/hyperactivity disorder arising from inhibitory control dysfunction. […] Therefore, the present disclosure also provides novel therapeutic methods of use for bromantane to facilitate extinction learning in the treatment of mental disorders or syndromes.

The mark [5] stands for this setting: participants with cocaine or amphetamine dependencies, 50 mg qd po for 7 days, 4-week study.

For `Brc1ccc(NC2C3CC4CC(C3)CC2C4)cc1` (stereo not drawn) [bromantane free base Form I], the “equilibrium solubility in water (solution state concentration of bromantane)” value in data set [1] is “below the detection limit”. In addition, the “onset of therapeutic effect” value in data set [2] is 2 to 3 h. The “hygroscopicity (water gain by DVS)” value in data set [3] was “non-hygroscopic (x<0.2% w/w gain at 25 °C and 80% RH)”.
For the compound `Brc1ccc(NC2C3CC4CC(C3)CC2C4)cc1` (stereo not drawn) [bromantane], the “cravings and withdrawal syndrome associated with addiction to stimulants of abuse” value in data set [4] (amphetamine, methamphetamine, cocaine) is “eliminates or significantly reduces”. The “counterproductive behaviors and thought patterns triggered by conditioned stimuli” value in data set [4] (analysis of subjective effects reported by participants) is “pronounced reduction”. Moreover, in data set [4] (in vivo), the secondary dependence result is “without leading to secondary dependence”. In data set [4] (participant with opioid dependence, during the period of intervention, 50 mg qd po for 7 days), the opioid use entry is given as “reduction in opioid use”. For the same compound, in data set [4] (setting [5]), the “abstinence from drug of concern” value is given as “achieved abstinence on the first day of intervention” and the “duration of maintained abstinence” value is listed as “maintain abstinence for approximately three weeks”. For the same compound, the caffeine use entry in data set [4] (participants, 50 mg qd po for 7 days) is given as “unplanned reduction in caffeine use”. In addition, in data set [4] (self-reported by participants), the “insomnia caused by rumination” value is on record as “Alleviation of insomnia” and the “temperament (threshold for irritability or anger)” value is “improved temperaments”.
